Where a name gives a salt, the structure may show the parent alone. Marks after values point to notes of the source that are not given here.
How the values were obtained:
Assay type in all cases: physicochemical
[1] = Kinetic solubility in water and bio-relevant media (SGF, FaSSIF, FeSSIF) at RT; conditions: for solubility kinetic: water and bio-relevant media (SGF, FaSSIF, FeSSIF), water/bio-relevant media
Protocol: After being centrifuged and separated using 0.45 μm Nylon filter, filtrates were collected for HPLC and pH test, and wet cakes for XRPD characterization. If clear solutions were obtained after 24 hours, accurate concentration and purity were measured for the solutions.

[2] = Inter-conversion of crystal forms via storage and heating experiments
[3] = Solubility estimation in solvents at RT; conditions: organic solvent or mixture, thermodynamic from solid
Protocol: Solubility of Type A was estimated in nine solvents at RT. […] Approximately 2 mg solids were added into a 3-mL glass vial.

[4] = water and bio-relevant media (SGF, FaSSIF, FeSSIF) at RT

Compound | S: Solubility ([1]; FaSSIF, RT, 1 hr) | S: Solubility ([1]; FaSSIF, RT, 2 hrs) | S: Solubility ([1]; FaSSIF, RT, 4 hrs) | S: Solubility ([1]; FaSSIF, RT, 24 hrs) | S: Solubility ([1]; SGF, RT, 1 hr) | S: Solubility ([1]; SGF, RT, 2 hrs) | S: Solubility ([1]; SGF, RT, 4 hrs) | S: Solubility ([1]; SGF, RT, 24 hrs) | S: Solubility ([1]; Water, RT, 1 hr) | S: Solubility ([1]; Water, RT, 2 hrs) | S: Solubility ([1]; Water, RT, 4 hrs) | S: Solubility ([1]; Water, RT, 24 hrs) | solubility compared with freebase Type A [1, 4] | S: Solubility ([1]; FeSSIF, RT, 1 hr) | further results
CCOCc1nc2c(N)nc3ccccc3c2n1CC(C)(C)O [Malate Type A, resiquimod] | C (C: Clear) | C (C: Clear) | C (C: Clear) | 3.7* mg/mL | C (C: Clear) | C (C: Clear) | C (C: Clear) | 4.3* mg/mL | C (C: Clear) | C (C: Clear) | C (C: Clear) | 3.7* mg/mL | improved or comparable solubility | – | solubility kinetic ([1]; water): > 3500 µg/mL
CCOCc1nc2c(N)nc3ccccc3c2n1CC(C)(C)O [Phosphate Type A, resiquimod] | C (C: Clear) | C (C: Clear) | C (C: Clear) | 4.3* mg/mL | C (C: Clear) | C (C: Clear) | C (C: Clear) | 4.0* mg/mL | C (C: Clear) | C (C: Clear) | C (C: Clear) | 3.9* mg/mL | improved or comparable solubility | – | –
CCOCc1nc2c(N)nc3ccccc3c2n1CC(C)(C)O [Type C, resiquimod] | – | – | – | – | – | – | – | – | – | – | – | – | – | – | form conversion on drying ([2]; dried at ambient conditions overnight): converted to Type A
CCOCc1nc2c(N)nc3ccccc3c2n1CC(C)(C)O [Type F, resiquimod] | – | – | – | – | – | – | – | – | – | – | – | – | – | – | form conversion on storage ([2]; storage at ambient conditions for 2 days): converted to Type A
CCOCc1nc2c(N)nc3ccccc3c2n1CC(C)(C)O [Sulfate Type A, resiquimod] | C (C: Clear) | C (C: Clear) | C (C: Clear) | 4.0* mg/mL | C (C: Clear) | C (C: Clear) | C (C: Clear) | 3.9* mg/mL | C (C: Clear) | C (C: Clear) | C (C: Clear) | 4.1* mg/mL | improved or comparable solubility | C (C: Clear) | –
CCOCc1nc2c(N)nc3ccccc3c2n1CC(C)(C)O [Maleate Type A, resiquimod] | 2.2 mg/mL | 2.3 mg/mL | 2.4 mg/mL | 2.3 mg/mL | 1.4 mg/mL | 1.5 mg/mL | 1.6 mg/mL | 1.5 mg/mL | 0.93 mg/mL | 0.98 mg/mL | 1.1 mg/mL | 0.97 mg/mL | – | – | FC: Solid form change ([1]; FaSSIF, RT, 1 hr): No; FC: Solid form change ([1]; FaSSIF, RT, 2 hrs): No; FC: Solid form change ([1]; FaSSIF, RT, 4 hrs): No; FC: Solid form change ([1]; FaSSIF, RT, 24 hrs): No; FC: Solid form change ([1]; FeSSIF, RT, 1 hr): No; FC: Solid form change ([1]; FeSSIF, RT, 2 hrs): No; FC: Solid form change ([1]; FeSSIF, RT, 4 hrs): No; FC: Solid form change ([1]; FeSSIF, RT, 24 hrs): No; solubility compared with freebase Type A ([1]; SGF, FaSSIF, and FeSSIF at RT): decreased solubility; FC: Solid form change ([1]; SGF, RT, 1 hr): No; FC: Solid form change ([1]; SGF, RT, 2 hrs): No; FC: Solid form change ([1]; SGF, RT, 4 hrs): No; FC: Solid form change ([1]; SGF, RT, 24 hrs): No; FC: Solid form change ([1]; Water, RT, 1 hr): No; FC: Solid form change ([1]; Water, RT, 2 hrs): No; FC: Solid form change ([1]; Water, RT, 4 hrs): No; FC: Solid form change ([1]; Water, RT, 24 hrs): No; Kinetic Solubility at RT ([1]; bio-relevant media): ~1.5 (bio-relevant mg/mL; form change after kinetic solubility evaluation ([1]; remaining solids after suspended 24 hours, XRPD): no form change; Kinetic Solubility at RT ([1]; water): ~1.0 (water) mg/mL
CCOCc1nc2c(N)nc3ccccc3c2n1CC(C)(C)O [Mono-HCl salt Type A, resiquimod] | – | – | – | – | C (C: Clear) | C (C: Clear) | C (C: Clear) | 4.7* mg/mL | – | – | – | – | improved or comparable solubility | C (C: Clear) | solubility at 24 h ([1]; FaSSIF, thermodynamic from solid, FaSSIF, RT, 24 hrs, read-out: S: Solubility): 4500 µg/mL; S: Solubility ([1]; FeSSIF, RT, 2 hrs): C (C: Clear); S: Solubility ([1]; FeSSIF, RT, 4 hrs): C (C: Clear); S: Solubility ([1]; FeSSIF, RT, 24 hrs): 4.6* mg/mL; solubility kinetic ([1]; water, summary): > 3800 µg/mL
CCOCc1nc2c(N)nc3ccccc3c2n1CC(C)(C)O [Di-HCl salt Type A, resiquimod] | C (C: Clear) | C (C: Clear) | C (C: Clear) | 3.9* mg/mL | C (C: Clear) | C (C: Clear) | C (C: Clear) | 3.9* mg/mL | – | – | – | – | improved or comparable solubility | C (C: Clear) | S: Solubility ([1]; FeSSIF, RT, 2 hrs): C (C: Clear); S: Solubility ([1]; FeSSIF, RT, 4 hrs): C (C: Clear); S: Solubility ([1]; FeSSIF, RT, 24 hrs): 3.9* mg/mL
CCOCc1nc2c(N)nc3ccccc3c2n1CC(C)(C)O [Adipate Type A, resiquimod] | 4.3 mg/mL | 4.5 mg/mL | 4.6 mg/mL | 4.5* mg/mL | 4.7 mg/mL | C (C: Clear) | C (C: Clear) | 4.7* mg/mL | 2.8 mg/mL | 2.7 mg/mL | 2.8 mg/mL | 2.7 mg/mL | improved or comparable solubility | – | FC: Solid form change ([1]; FaSSIF, RT, 1 hr): No; FC: Solid form change ([1]; Water, RT, 1 hr): No; FC: Solid form change ([1]; Water, RT, 2 hrs): No; FC: Solid form change ([1]; Water, RT, 4 hrs): No; FC: Solid form change ([1]; Water, RT, 24 hrs): No; Kinetic Solubility at RT ([1]; bio-relevant media): >4.2 (bio-relevant mg/mL; Kinetic Solubility at RT ([1]; water): ~2.7 (water) mg/mL
CCOCc1nc2c(N)nc3ccccc3c2n1CC(C)(C)O [sulfate Type A (807919-21-A)] | – | – | – | – | – | – | – | – | – | – | – | – | – | – | solubility ([3]; ACN): < 2200 µg/mL; solubility ([3]; DMAc): > 40000 µg/mL; solubility ([3]; DMSO): > 44000 µg/mL; solubility ([3]; EtOAc): < 2200 µg/mL; solubility ([3]; IPAc): < 2000 µg/mL; solubility ([3]; MEK): < 2000 µg/mL; solubility ([3]; MIBK): < 2100 µg/mL; solubility ([3]; MTBE): < 2300 µg/mL; solubility ([3]; NMP): > 44000 µg/mL; solubility ([3]; anisole): < 2200 µg/mL; solubility ([3]; n-heptane): < 2100 µg/mL; solubility ([3]; toluene): < 2000 µg/mL

Reference: patent publication US20260248780A1, “PHARMACEUTICAL COMPOSITIONS” (Birdie Biopharmaceuticals, Inc., priority 2017, published 2026)
